# Reference: patent US9572831B2, “Composition and method for sulfated non-anticoagulant low molecular weight heparins in cancer and tumor metastasis” (priority 2013, dated 2017)
# Tests used:
# [1] = tested on: MPanc96-luc cells; type: in vivo, athymic nude mice; settings: S-NACH 20 mg/kg, tinzaparin 5 mg/kg
# Description: MPanc96-luc cells were harvested as described above and were orthotopically implanted (2×10^5 cells in 50 μl PBS per mouse) in the pancreas of anesthetized athymic nude mice. Just before treatment initiation, animals (n=10 per group) were randomized by tumor mass detected by an in vivo imaging system (IVIS, described below). Heparin derivatives S-NACH at 20 mg/kg and tinzaparin at 5 mg/kg were administered subcutaneously daily. Gemcitabine at 100 mg/kg was injected intraperitoneally twice a week alone or in combination with either S-NACH or tinzaparin. All mice used for treatment response evaluations were euthanized after 28 days. See Table 2 for the protocol of the study. Imaging was performed once per week to monitor tumor growth. Mice bearing MPanc96-luc tumors were anaesthetized using isoflurane, injected subcutaneously with 50 μl D-luciferin (30 mg/ml), then imaged. Photographic and luminescence images were taken at constant exposure time. Xenogen IVIS® Living Image software version 3.2 was used to quantify non-saturated bioluminescence in regions of interest. Light emission between 5.5×10^6-7.0×10^10 photons was assumed to be indicative of viable luciferase-labeled tumor cells while emissions below this range were considered as background. Bioluminescence was quantified as photons/second for each region of interest. In vivo tumor kinetic growth and metastasis were monitored by signal intensity. Ex vivo imaging was performed to confirm the signal intensity in the tumors after the termination. All specimens were analyzed by histology for routine analysis. Specimens were fixed in 10% buffered formalin, processed routinely, and embedded in paraffin. Then, after fixation, the specimens were transferred into the embedding chambers to hold the specimens in position until the paraffin became solid to prevent further rotation. Four μm serial sections were cut, and then stained using haematoxylin and eosin. Sections were evaluated for various pathologic parameters using a light microscope (Leica, Buffalo Grove, Ill.).
# [2] = tested on: human umbilical vein; assay: In vitro human vessel perfusion model; type: cell-based; settings: FIG. 3
# Source text: Based on published data obtained on the tumor/vessel adherence characteristics in this model [Mousa S A., Comparative pharmacodynamic assessment of the antiangiogenesis activity of heparin and low-molecular-weight heparin fractions: structure function relationship, Clin Appl Thromb Hemost, 2013, 19(1):48-54], umbilical vein was utilized for all studies. Following informed consent, fresh umbilical cord was obtained, using a sterile technique, from the placenta following normal delivery […] from patients at local hospitals. Approximately 20 cm of the cord is excised, rinsed and wiped free of blood using cold 0.9% saline and sterile gauze. Then cold saline was used to flush the vein clean of blood. Two sections of umbilical cord (approximately 3 cm each) are cut longitudinally to expose the vein surface and are pinned to the silastic base of the chamber using 27 G×1 inch needles. […]
# The vein segments were perfused for 24 hours with cancer cells in platelet-rich plasma (PRP) under venous flow conditions (70 ml/min). […] Blood gases of the perfusate were measured 15 minutes after the start and just prior to the end of the perfusion period to confirm that physiological conditions were maintained. […] Statistical significance was determined by using a paired t-test. […]
substance,measurement,setting,value
tinzaparin,tumor necrosis (histology),[1],modest increase in necrotic area
same,pancreatic cancer cell adhesion,[2],comparable anti-adhesive potency
